This is an account of results in ChEMBL document CHEMBL1129009, “New aza-thioxanthones: Synthesis and cytotoxicity” (Bioorg Med Chem Lett, 1996).

What all share (assay type): functional, cell-based
Details in all cases: Homo sapiens

Test [1] relates to MCF7. The experiment in a line: Compound was evaluated for cytotoxicity against breast cancer MCF-7 cell lines.
Test [2] has as its system HOP-92. The experiment in a line: Compound was evaluated for cytotoxicity against non small lung cancer HOP-92 cell line.
For test [3], the system named is SW-620. In words: Compound was evaluated for cytotoxicity against colon SW-620 cell line.
The test system of test [4] is SK-OV-3. The experiment in a line: Compound was evaluated for cytotoxicity against ovarian carcinoma […] cell line.
Test [5] relates to MOLT-4. The experiment in a line: Compound was evaluated for cytotoxicity against leukemic MOLT-4 cell lines.

By IC50 is commonly meant the concentration that inhibits the measured activity by half. A high value points to weaker potency.

`O=C(CN1CCCCC1)Nc1ccc2sc3ccccc3c(=O)c2n1`: the IC50 in test [1] is 19.4 µM; in test [2], 15.1 µM; in test [3], 5.42 µM; in test [4] it was 21.4 µM; in test [5], 2.69 µM.

On to `O=C(CCN1CCOCC1)Nc1ccc2sc3ccccc3c(=O)c2n1`, for which the IC50 in test [1] was 49.8 µM; in test [2] it was 45.3 µM; in test [3], 27.3 µM; in test [4], 47.6 µM.

Consider `CCN(CC)CCC(=O)Nc1ccc2sc3ccccc3c(=O)c2n1`, for which the IC50 in test [1] was found to be 13.3 µM; in test [3] it was 12 µM; in test [4] it was 20.5 µM; in test [5], 7.77 µM.

`O=C(CCN1CCCCC1)Nc1ccc2sc3ccccc3c(=O)c2n1`: the IC50 in test [1] was 15.9 µM; in test [2], 0.41 µM; in test [3], 8.31 µM; in test [4], 23.2 µM; in test [5], 2.56 µM.

For `O=C(CCN1CCCC1)Nc1ccc2sc3ccccc3c(=O)c2n1`, the IC50 in test [1] was 17 µM; in test [2] it was 18.1 µM; in test [3] it was 15.5 µM; in test [4] it was 5.23 µM; in test [5], 3.42 µM.

On to `O=C(CN1CCCC1)Nc1ccc2sc3ccccc3c(=O)c2n1`, for which the IC50 in test [1] came out at 27.2 µM; in test [2], 27.3 µM; in test [3], 4.96 µM; in test [4], 20.6 µM; in test [5] it was 1.91 µM.
